Experiments:
[1] = Separation of Pr from L5 by C18 column (Example 28); assay type: physicochemical
Experimental: Stock solutions were pipetted into a 20 mL glass vial to prepare a reaction mixture as follows: • 1. 1.00 mL 100 mM aqueous solution of PrCl3 • 2. 0.60 mL 218 mM aqueous solution of L5
NaOH (2 M aqueous stock solution) was added by micropipette to titrate the reaction pH to 6. This reaction was stirred by the use of a PTFE-coated stir bar on a magnetic stirrer at room temperature for 30 minutes. The resulting suspension was transferred into two 2 mL plastic Eppendorf centrifuge tubes and centrifuged. The supernatant was set aside and analysed by HPLC, and the precipitate was dissolved by addition of 0.15 mL 1 M HCl to each Eppendorf tube. These dissolved solutions were combined and titrated to pH 2 by addition of 2 M NaOH.
The L5 and Pr present in the acidic solution were separated by reverse-phase chromatography, using 1.01 g fully-endcapped C18 silica gel in a plastic SPE cartridge (2 cm diameter). After conditioning the reversed phase with MeCN and MeCN/H20 solutions, 1 mL of H2O was run through the column before loading the L5-Pr solution onto the column. MeCN/H20 solutions were used to elute the components from the column: 2 mL 0% MeCN, 4 mL 10% MeCN, 4 mL 25% MeCN, and 4 mL 50% MeCN. The eluted solutions were collected as seven 2 mL fractions. All fractions were analysed by HPLC-MS to determine L5 content. The first two fractions were also analysed by ICP-OES to determine Pr content.
The distribution of L5 and Pr in the fractions is shown in Table 21, where the quantity of each component present in each fraction is provided as a fraction of the total quantity of the component found in the sum of the fractions, as well as the measured content of Pr (in mM) and L5 (as the integrations of the chromatographic peak areas at 280 nm) found in each fraction.

[2] = Separation of binary mixture of rare-earth metals by precipitation using L1, MOPS pH 8.5 (Example 8); assay type: physicochemical; conditions: supernatant
Experimental: Analogous to Example 7), the well plate was then centrifuged and concentrations of the metals were determined using ICP-OES. The resulting concentrations of both metals in the supernatants and their ratios are summarized in […]

Q: Which results are given for O=C(O)CN1CCN(CC(=O)O)CCN(Cc2cccc3ccccc23)CCN(CC(=O)O)CC1 [L5, 2,2′,2″-(10-(naphthalene-1-ylmethyl)-1,4,7,10-tetraazacyklododekane-1,4,7-triyl)triacetic acid]?
A: % distribution in fractions L5 ([1]; fraction 1 (0% MeCN)): 0.0%; % distribution in fractions Pr ([1]; fraction 1 (0% MeCN)): 87%; measured content of fraction L5 peak area (280 nm) ([1]; fraction 1 (0% MeCN)): 0 AU; measured content of fraction Pr ([1]; fraction 1 (0% MeCN)): 18.95 mM; % distribution in fractions L5 ([1]; fraction 2 (10% MeCN)): 0.1%; % distribution in fractions Pr ([1]; fraction 2 (10% MeCN)): 13%; measured content of fraction L5 peak area (280 nm) ([1]; fraction 2 (10% MeCN)): 3 AU; measured content of fraction Pr ([1]; fraction 2 (10% MeCN)): 2.82 mM; % distribution in fractions L5 ([1]; fraction 3 (10% MeCN)): 56.8%; measured content of fraction L5 peak area (280 nm) ([1]; fraction 3 (10% MeCN)): 2258 AU; % distribution in fractions L5 ([1]; fraction 4 (25% MeCN)): 34.8%; measured content of fraction L5 peak area (280 nm) ([1]; fraction 4 (25% MeCN)): 1382 AU; % distribution in fractions L5 ([1]; fraction 5 (25% MeCN)): 8.1%; measured content of fraction L5 peak area (280 nm) ([1]; fraction 5 (25% MeCN)): 324 AU; % distribution in fractions L5 ([1]; fraction 6 (50% MeCN)): 0.1%; measured content of fraction L5 peak area (280 nm) ([1]; fraction 6 (50% MeCN)): 5 AU; % distribution in fractions L5 ([1]; fraction 7 (50% MeCN)): 0.1%; measured content of fraction L5 peak area (280 nm) ([1]; fraction 7 (50% MeCN)): 3 AU

Q: For O=C(O)CN1CCN(CC(=O)O)CCN(Cc2ccccc2)CCN(CC(=O)O)CC1 [L1, 2,2′,2″-(10-benzyl-1,4,7,10-tetraazacyclododecane-1,4,7-triyl)triacetic Acid], which “[mM] M1” value ([2]; M1=Ce, M2=Er) is on record?
A: 0.280 mM

Q: And the “[mM] M1” value ([2]; M1=Ce, M2=Tm)?
A: 0.425 mM

Q: And the “[mM] Tm” value ([2]; M1=Ce, M2=Tm)?
A: 2.035 mM

Q: What about the M1/Er ([2]; M1=Ce) of the same molecule?
A: 0.51

Q: And the “[mM] M1” value ([2]; M1=Dy, M2=Er)?
A: 0.338 mM

Q: And the “[mM] M1” value ([2]; M1=Dy, M2=Tm)?
A: 0.362 mM

Q: And the “[mM] Tm” value ([2]; M1=Dy, M2=Tm)?
A: 2.382 mM

Q: What about the M1/Er ([2]; M1=Dy) of the same molecule?
A: 0.34

Q: What about the “[mM] M1” value ([2]; M1=Er, M2=Er) of the same molecule?
A: 4.969 mM

Q: And the “[mM] M1” value ([2]; M1=Er, M2=Tm)?
A: 2.759 mM

Q: And the “[mM] Tm” value ([2]; M1=Er, M2=Tm)?
A: 3.368 mM

Q: And the M1/Er ([2]; M1=Er)?
A: 1.00

Q: What about the “[mM] Er” value ([2]; M1=Eu, M2=Er) of the same molecule?
A: 0.680 mM

Q: And the “[mM] M1” value ([2]; M1=Eu, M2=Er)?
A: 0.244 mM

Q: And the “[mM] M1” value ([2]; M1=Eu, M2=Tm)?
A: 0.244 mM

Q: And the “[mM] Tm” value ([2]; M1=Eu, M2=Tm)?
A: 2.091 mM

Q: And the M1/Er ([2]; M1=Eu)?
A: 0.36

Q: What about the “[mM] Er” value ([2]; M1=Gd, M2=Er) of the same molecule?
A: 0.972 mM

Q: And the “[mM] M1” value ([2]; M1=Gd, M2=Er)?
A: 0.402 mM

Q: And the “[mM] M1” value ([2]; M1=Gd, M2=Tm)?
A: 0.254 mM

Q: And the “[mM] Tm” value ([2]; M1=Gd, M2=Tm)?
A: 1.814 mM

Q: What about the M1/Er ([2]; M1=Gd) of the same molecule?
A: 0.41

Q: And the “[mM] M1” value ([2]; M1=Ho, M2=Er)?
A: 0.496 mM

Q: And the “[mM] M1” value ([2]; M1=Ho, M2=Tm)?
A: 0.521 mM

Q: What about the “[mM] Tm” value ([2]; M1=Ho, M2=Tm) of the same molecule?
A: 2.329 mM

Q: What about the M1/Er ([2]; M1=Ho) of the same molecule?
A: 0.60

Q: What about the “[mM] M1” value ([2]; M1=La, M2=Er) of the same molecule?
A: 0.368 mM

Q: What about the “[mM] M1” value ([2]; M1=La, M2=Tm) of the same molecule?
A: 0.616 mM

Q: What about the “[mM] Tm” value ([2]; M1=La, M2=Tm) of the same molecule?
A: 2.425 mM

Q: And the M1/Er ([2]; M1=La)?
A: 0.57

Q: What about the “[mM] M1” value ([2]; M1=Lu, M2=Er) of the same molecule?
A: 7.607 mM

Q: And the “[mM] M1” value ([2]; M1=Lu, M2=Tm)?
A: 7.337 mM

Q: And the “[mM] Tm” value ([2]; M1=Lu, M2=Tm)?
A: 4.588 mM

Q: What about the M1/Er ([2]; M1=Lu) of the same molecule?
A: 1.67

Q: And the “[mM] Er” value ([2]; M1=Nd, M2=Er)?
A: 0.692 mM

Q: What about the “[mM] M1” value ([2]; M1=Nd, M2=Er) of the same molecule?
A: 0.280 mM

Q: And the “[mM] M1” value ([2]; M1=Nd, M2=Tm)?
A: 0.315 mM

Q: What about the “[mM] Tm” value ([2]; M1=Nd, M2=Tm) of the same molecule?
A: 1.892 mM

Q: What about the M1/Er ([2]; M1=Nd) of the same molecule?
A: 0.40

Q: And the “[mM] M1” value ([2]; M1=Pr, M2=Er)?
A: 0.210 mM

Q: What about the “[mM] M1” value ([2]; M1=Pr, M2=Tm) of the same molecule?
A: 0.298 mM

Q: And the “[mM] Tm” value ([2]; M1=Pr, M2=Tm)?
A: 2.016 mM

Q: And the M1/Er ([2]; M1=Pr)?
A: 0.32

Q: And the “[mM] M1” value ([2]; M1=Sc, M2=Er)?
A: 5.191 mM

Q: And the “[mM] M1” value ([2]; M1=Sc, M2=Tm)?
A: 5.087 mM

Q: And the “[mM] Tm” value ([2]; M1=Sc, M2=Tm)?
A: 4.448 mM

Q: What about the M1/Er ([2]; M1=Sc) of the same molecule?
A: 1.16

Q: What about the “[mM] Er” value ([2]; M1=Sm, M2=Er) of the same molecule?
A: 0.734 mM

Q: What about the “[mM] M1” value ([2]; M1=Sm, M2=Er) of the same molecule?
A: 0.197 mM

Q: And the “[mM] M1” value ([2]; M1=Sm, M2=Tm)?
A: 0.218 mM

Q: And the “[mM] Tm” value ([2]; M1=Sm, M2=Tm)?
A: 2.090 mM

Q: And the M1/Er ([2]; M1=Sm)?
A: 0.27

Q: And the “[mM] M1” value ([2]; M1=Tb, M2=Er)?
A: 0.225 mM

Q: What about the “[mM] M1” value ([2]; M1=Tb, M2=Tm) of the same molecule?
A: 0.225 mM

Q: What about the “[mM] Tm” value ([2]; M1=Tb, M2=Tm) of the same molecule?
A: 2.342 mM

Q: What about the M1/Er ([2]; M1=Tb) of the same molecule?
A: 0.28

Q: And the “[mM] M1” value ([2]; M1=Tm, M2=Er)?
A: 3.971 mM

Q: What about the “[mM] M1” value ([2]; M1=Tm, M2=Tm) of the same molecule?
A: 4.779 mM

Q: And the “[mM] Tm” value ([2]; M1=Tm, M2=Tm)?
A: 4.779 mM

Q: And the M1/Er ([2]; M1=Tm)?
A: 1.73

Q: What about the “[mM] M1” value ([2]; M1=Y, M2=Er) of the same molecule?
A: 0.503 mM

Q: And the “[mM] M1” value ([2]; M1=Y, M2=Tm)?
A: 0.480 mM

Q: And the “[mM] Tm” value ([2]; M1=Y, M2=Tm)?
A: 2.367 mM

Q: And the M1/Er ([2]; M1=Y)?
A: 0.56

Q: What about the “[mM] M1” value ([2]; M1=Yb, M2=Er) of the same molecule?
A: 5.400 mM

Q: And the “[mM] M1” value ([2]; M1=Yb, M2=Tm)?
A: 5.477 mM

Q: And the “[mM] Tm” value ([2]; M1=Yb, M2=Tm)?
A: 4.598 mM

Q: And the M1/Er ([2]; M1=Yb)?
A: 1.25
